Test results reported in paper PMC6938345, “Inhibition of complement activation, myeloperoxidase, NET formation and oxidant activity by PIC1 peptide variants” (PLoS ONE, 2019).

Experiments:
[1] = test system: purified human neutrophils; test: NETosis assay, free DNA by PicoGreen; format: cell-based; conditions: Average of n = 3; peptide 2 mM
Protocol: NETosis assays with immune complexes were performed as previously described. Briefly, normal human serum was stimulated with ovalbumin-antiovalbumin immune complexes in GVBS^++ for 30 minutes at 37 °C. This mixture along with 0.05% H2O2 was then added to purified human neutrophils resuspended in RPMI with or without sarcosine variants (2 mM), allowing NETosis to occur. Quantitation of free DNA released from the neutrophils was performed using PicoGreen. Slides were stained with DAPI (Southern Biotech, Birmingham, AL) and the following antibodies, mouse anti-elastase (Invitrogen, Carlsbad, CA) was used with the secondary goat anti-mouse Alexa Fluor 568 (Novus Biologicals, Centennial, CO) and rabbit anti-histone H3 (Abcam, Cambridge MA) with goat anti-rabbit Alexa Fluor 488 (Novus Biologicals) to visualize formation of NETs which were imaged with fluorescence microscopy with an Olympus BX53 microscope.
In this assay purified human neutrophils are stimulated with normal human serum activated with ovalbumin-antiovalbumin immune complexes and hydrogen peroxide. Free DNA expressed from the neutrophils is then measured in a PicoGreen assay.
Fig 5 Sarcosine variant inhibition of NET formation. Fluorescence microscopy images of NET formation after neutrophil stimulation with immune complexes (IC) and hydrogen peroxide (H2O2) compared with neutrophil only control. Variant I8 inhibition of NET formation is shown in the third row. Histones are probed with anti-histone antibody (αhistone), neutrophil elastase is probed with anti-neutrophil elastase (αNE) and DNA is stained with DAPI. Representative images are shown. […] Purified human neutrophils were stimulated with 2% normal human sera pre-incubated with ovalbumin-antiovalbumin immune complexes, and 0.05% H2O2. Sarcosine peptides and PIC1 were added to the sera to a final concentration of 2 mM. Data are the means of n = 3 independent experiments + SEM.

[2] = test system: antibody-initiated complement activation (type O sera + type AB red blood cells); test: ABO incompatibility hemolytic assay (CH50-type, ex vivo); format: cell-based, human; conditions: peptides 1.8 mM
Protocol: For hemolytic complement assays, human red blood cells (RBCs) from type AB donors were purified, washed and standardized to 1 × 10^9 cells/ml, as previously described. Human sera from type O donors at a 20% final concentration was combined with 1 mM PIC1 or sarcosine variant peptides and the volume was brought up to 0.15 ml with GVBS^++ and 0.5 ml RBCs. For factor B-depleted sera hemolytic assays, a final of 0.005% factor B depleted sera was incubated with 1 mM PIC1 or sarcosine variant peptides with 0.1 ml antibody-sensitized sheep red blood cells (EA) in a final volume of 0.75 ml GVBS^++. The samples were incubated for 1 hour at 37 °C and then 1.0 ml of GVBS^-—was added to the factor B-depleted samples to stop the reaction. The samples were spun at 3,000 rpm for 5 minutes and the supernatant was collected and read at 412 nm. Values are represented as a percent of the positive control, which consists of human O sera and AB red blood cells in GVBS^++ buffer.
In order to evaluate the extent to which the peptide variants inhibit antibody-initiated complement activation, we tested them in two hemolytic assays including an ABO incompatibility ex vivo assay (Fig 1A) and a classical pathway CH50-type assay in factor B-depleted sera (Fig 1B). In the ABO incompatibility hemolytic assay, purified erythrocytes from a ‘type AB+’ donor are incubated with sera from a ‘type O’ subject containing anti-A and anti-B antibodies; peptides were tested at 1.8 mM. […] We then performed a CH50-type hemolytic assay, with antibody-sensitized sheep erythrocytes, isolating the classical pathway by utilizing factor B-depleted sera; peptides were tested at 0.4 mM.
Fig 1 Sarcosine variant inhibition of complement activation in hemolytic assays and C1q binding. A) Inhibition of ABO incompatibility hemolysis in a CH50-type assay. Peptides are at a final concentration of 1.8 mM. […] Data are the means of n = 4 independent experiments + SEM. B) Inhibition of classical complement pathway-mediated hemolysis in factor B-depleted sera in a CH50-type assay. Peptides are at a final concentration of 0.4 mM. Data are the means of n = 4 independent experiments + SEM. C) Binding of increasing concentrations of sarcosine variants to purified C1q in an ELISA-type assay. Data are the means of n = 3 independent experiments ± SEM. D) Half-maximal binding concentrations were calculated for each peptide’s binding curve.

[3] = Total Antioxidant Capacity (TAC) assay
Protocol: The TAC (Total Antioxidant Capacity) Assay (Cell Biolabs, Inc, San Diego, CA) was used to measure the antioxidant capacity of the sarcosine variants based on the reduction of copper (II) to copper (I). The kit protocol was performed as recommended.
Antioxidant activity is measured in copper reducing equivalents (CRE). Peptides were tested over a range of concentrations from 0.03–0.25 mM then compared to the standard. Data are the means of n = 3 independent experiments + SEM.

MPO heme ring = target: T1, MPO heme ring (Homo sapiens, UniProt P05164); test: MPO heme ring oxidative degradation; format: biochemical; conditions: peptides 3.0 mM, H2O2, absorbance 300-550 nm
T1 construct: purchased Lee BioSolutions (Maryland Heights, MO)
T1 sequence (P05164 49-745): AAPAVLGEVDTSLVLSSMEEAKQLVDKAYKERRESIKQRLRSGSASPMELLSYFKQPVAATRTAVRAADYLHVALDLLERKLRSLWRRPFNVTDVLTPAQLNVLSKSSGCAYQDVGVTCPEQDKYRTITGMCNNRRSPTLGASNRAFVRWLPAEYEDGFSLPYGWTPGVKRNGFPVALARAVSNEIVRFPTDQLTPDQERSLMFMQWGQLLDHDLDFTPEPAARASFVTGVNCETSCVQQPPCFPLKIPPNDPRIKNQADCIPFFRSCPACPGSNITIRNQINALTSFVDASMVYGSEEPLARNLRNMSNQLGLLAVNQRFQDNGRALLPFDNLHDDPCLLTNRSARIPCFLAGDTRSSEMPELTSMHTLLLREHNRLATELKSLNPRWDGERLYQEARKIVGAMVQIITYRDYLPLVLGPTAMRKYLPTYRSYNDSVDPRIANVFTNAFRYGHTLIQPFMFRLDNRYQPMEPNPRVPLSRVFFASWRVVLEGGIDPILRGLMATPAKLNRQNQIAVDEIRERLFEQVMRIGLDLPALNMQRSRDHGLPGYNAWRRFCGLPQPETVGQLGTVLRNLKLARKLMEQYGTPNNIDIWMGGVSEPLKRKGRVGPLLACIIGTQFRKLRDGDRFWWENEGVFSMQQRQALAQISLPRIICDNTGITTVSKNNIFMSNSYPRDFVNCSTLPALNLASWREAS
Protocol: In a 96 well plate, 0.025 ml of 1.7 mg/ml MPO was combined with 0.00125 ml of 0.5% H2O2 and 3 mM PIC1 or sarcosine variant peptides in a total volume of 0.125 ml PBS and left to incubate at room temperature for 2 minutes. Using a 96 well plate reader, the wells were scanned for absorbance from 300–550 nm to generate curves reflecting the iron state in the MPO heme ring, as previously reported.
We then evaluated the ability of the variants to prevent degradation of the heme ring in the MPO molecule. […] This can be evaluated via spectrometric measurements of absorption of wavelengths from 300–550 nm. Absorption measurements were made over this spectrum for all variants (Fig 3A–3H). […] The heme ring preservation for these two variants was greater than that for the parent compound, PA-dPEG24.
Fig 3 Sarcosine variant protection of MPO heme ring from oxidative degradation. Absorbance spectra for the heme ring is shown in the absence of hydrogen peroxide (MPO) in red, in the presence of hydrogen peroxide (MPO+H2O2) in black, in the presence of peptide in blue, and in the presence of hydrogen peroxide and peptide together in green. […] B-H) Peptides A2 – C9,10 are denoted in the legends. Peptides were tested at a concentration of 3.0 mM.

[4] = Peptide solubility in water
Protocol: (PA) (Table 1) were synthesized by New England Peptide (Gardner, MA) to >90% purity. Sarcosine variants and PEG were dissolved in water and the pH was adjusted with NaOH. PA was dissolved in DMSO and then brought up to the final concentration with water resulting in 30% DMSO and pH adjusted. Antibody sensitized sheep erythrocytes (EA), purified C1q and factor B-depleted human sera were purchased from Complement Technology (Tyler, TX). Purified myeloperoxidase was purchased from Lee BioSolutions (Maryland Heights, MO) and tetramethylbenzidine (TMB) and PicoGreen were purchased from Thermo Fisher (Waltham MA).
(PA), peptide derivatives were synthesized with sarcosine residues substituted at all 15 positions, included a peptide in which the vicinal cysteines at positions 9 and 10 (C9,C10) were replaced with a single sarcosine residue (Table 1).

CC[C@H](C)[C@H](N)C(=O)N[C@@H](C)C(=O)N[C@@H](CC(C)C)C(=O)N[C@H](C(=O)N[C@@H](CC(C)C)C(=O)N[C@@H](CCC(=O)O)C(=O)N1CCC[C@H]1C(=O)N[C@H](C(=O)N(C)CC(=O)N[C@@H](CS)C(=O)N[C@@H](CCC(N)=O)C(=O)N[C@@H](CCC(=O)O)C(=O)N[C@@H](CCCNC(=N)N)C(=O)N[C@@H](C)C(=O)N[C@@H](C)C(=O)O)[C@@H](C)CC)[C@@H](C)CC [C9]
PICO green - NETs, free DNA release [1]: 38
ABO hemolysis ([2]; Avg of n = 4, concentration basis of PIC1 not stated): 18.25 % of Control
inhibition of ABO incompatible hemolysis (in words) [2]: to a greater extent than did the PA-dPEG24
TAC assay, antioxidant activity ([3]; Avg of n = 3): 845.83 copper reducing equivalents (CRE)
antioxidant capacity (in words) ([3]; TAC assay): approximately half of the antioxidant capacity as PA-dPEG24
protection of MPO heme ring from degradation (in words) (MPO heme ring): near perfect preservation
solubility in water (in words) [4]: soluble in water
